By MIC is commonly meant the lowest concentration that inhibits growth of the organism.

These results are taken from DBAASP.

Some test systems named below: Staphylococcus aureus; Escherichia coli MG1655; Escherichia coli BL21; Escherichia coli BL21AI; Staphylococcus aureus MR.
Common to all, as to test: ≥ marks a high value that may be exact or a test limit, other limits are often not marked, values filed in µg/mL are converted to µM
The test system of assay [1] is Franconibacter helveticus DSM 18390.
The test system of assay [2] is Escherichia coli DSM 1116.
Assay [3] relates to Staphylococcus xylosus DSM 20267.
Assay [4] concerns Porphyromonas gingivalis ATCC 33277.
Assay [5] deals with Cutibacterium acnes JCM 6473.
The test system of assay [6] is Candida albicans NBRC 1385.
The test system of assay [7] is Streptococcus mutans JCM 5705.
Assay [8] relates to Staphylococcus aureus ATCC 29213.
Assay [9] has as its system Staphylococcus aureus FusA88700.
Assay [10] has as its system Staphylococcus epidermidis.
For assay [11], the system named is Staphylococcus aureus FDA486.
The test system of assay [12] is Staphylococcus aureus ATCC 6538.
Assay [13] relates to Pseudomonas aeruginosa ATCC 15442.
Assay [14] relates to Candida albicans ATCC 10231.
Assay [15] has as its system Enterococcus faecalis ATCC 2912.
The subject of assay [16] is Staphylococcus hominis ATCC 27844.
For assay [17], the system named is Escherichia coli ATCC 25922.
The test system of assay [18] is Staphylococcus aureus NCTC 10788.
Assay [19] concerns Pseudomonas aeruginosa ATCC 27853.
For assay [20], the system named is Escherichia coli NCTC 10418.
Assay [21] concerns Klebsiella pneumoniae ATCC 43816.
The test system of assay [22] is Candida albicans NCTC 1467.
The test system of assay [23] is Enterococcus faecalis NCTC 12697.
Assay [24] deals with Staphylococcus aureus NCTC 12493.
Assay [25] concerns Micrococcus luteus DSM 1790.
In assay [26] the test system is Staphylococcus aureus CECT 435.
Assay [27] relates to Streptococcus agalactiae CECT 183T.
In assay [28] the test system is Enterococcus faecalis CECT 481.

Converted amounts (≈) assume the structure as drawn. “And” between values parts separate entries of the source, which are not always exact repeats. Identical values can stand only once.

Turning to `CC(C)C[C@H](NC(=O)[C@H](CCCCN)NC(=O)[C@H](CC(C)C)NC(=O)[C@H](CCCCN)NC(=O)[C@H](CC(C)C)NC(=O)[C@H](CCCCN)NC(=O)[C@H](CC(C)C)NC(=O)[C@H](CCCCN)NC(=O)[C@H](CC(C)C)NC(=O)[C@@H](N)CCCCN)C(N)=O` [KLKLKLKLKL], the MIC in assay [1] was 3.27 µM and 1.63 µM; in assay [2], 6.53 µM and 3.27 µM; in assay [3] it was 1.63 µM (≈ 2 µg/mL).

Take `CC[C@H](C)[C@H](NC(=O)[C@H](CCCN=C(N)N)NC(=O)CNC(=O)[C@H](Cc1ccc(O)cc1)NC(=O)[C@H](CCC(N)=O)NC(=O)[C@H](CC(N)=O)NC(=O)[C@@H](N)CCCCN)C(=O)N[C@@H](CCCN=C(N)N)C(=O)N[C@H](C(=O)N[C@@H](CC(C)C)C(=O)N[C@@H](CCC(N)=O)C(=O)N[C@@H](CCCN=C(N)N)C(=O)N[C@@H](Cc1ccccc1)C(=O)N[C@@H](CC(N)=O)C(=O)N[C@@H](CCC(N)=O)C(=O)N[C@@H](CCCN=C(N)N)C(=O)O)C(C)C` [KNQYGRIRVLQRFNQR]: the minimum inhibitory concentration (MIC) in assay [4], in assay [5], in [6] and in assay [7] was at least 1020 µM in each case.

Consider `CC[C@H](C)[C@H](NC(=O)[C@H](CCCCN)NC(=O)[C@H](CCCN=C(N)N)NC(=O)[C@H](CCCCN)NC(=O)[C@H](CCCCN)NC(=O)[C@H](CCCCN)NC(=O)[C@H](Cc1c[nH]c2ccccc12)NC(=O)[C@H](CCCCN)NC(=O)[C@@H](NC(=O)[C@H](CC(C)C)NC(=O)[C@H](Cc1c[nH]c2ccccc12)NC(=O)[C@H](CCCN=C(N)N)NC(=O)[C@H](CC(=O)O)NC(=O)[C@H](CCSC)NC(C)=O)C(C)C)C(=O)N[C@@H](CCCN=C(N)N)C(=O)N[C@@H](CCCN=C(N)N)C(=O)N[C@@H](CCCN=C(N)N)C(=O)N[C@@H](CCCN=C(N)N)C(=O)N[C@@H](CCCN=C(N)N)C(=O)N[C@@H](CCCN=C(N)N)C(=O)N[C@@H](CCCN=C(N)N)C(=O)N[C@@H](CCCN=C(N)N)C(=O)N[C@@H](CCCN=C(N)N)C(=O)N[C@@H](CCCN=C(N)N)C(=O)N[C@@H](CCCN=C(N)N)C(N)=O` [MDRWLVKWKKKRKIRRRRRRRRRRR], for which the MIC came out at 3 µM (≈ 11 µg/mL) in assay [8]; 3 µM (≈ 11 µg/mL) in the assay on Staphylococcus aureus; 3 µM (≈ 11 µg/mL) in assay [9]; 11 µM (≈ 40.4 µg/mL) in the assay on Escherichia coli MG1655; 3 µM (≈ 11 µg/mL) in assay [10]; 5 µM (≈ 18.4 µg/mL) in the assay with Escherichia coli BL21. In assay [11], the MIC worked out at 3 µM (≈ 11 µg/mL).

In the case of `CSCC[C@H](NC(=O)[C@H](CCCN=C(N)N)NC(=O)[C@H](CO)NC(=O)CNC(=O)[C@H](CCCCN)NC(=O)[C@@H](N)CCCN=C(N)N)C(=O)NCC(=O)N[C@@H](CCCCN)C(=O)N[C@@H](CCCCN)C(=O)N[C@@H](CS)C(=O)N[C@@H](CCC(=O)O)C(=O)N[C@@H](CS)C(=O)N1CCC[C@H]1C(=O)O` [RKGSRMGKKCECP], the MIC is above 40 µM in assay [12]; 2.1 µM (≈ 3.11 µg/mL) in [13]; 13.5 µM (≈ 20 µg/mL) in assay [14]; 8.3 µM (≈ 12.3 µg/mL) in assay [15]; 8.3 µM (≈ 12.3 µg/mL) in assay [16]; 2.1 µM (≈ 3.11 µg/mL) in assay [17].

As to `CSCC[C@H](NC(=O)[C@H](CCC(=O)O)NC(=O)[C@H](CCCCN)NC(=O)[C@H](CC(C)C)NC(=O)[C@H](CCCCN)NC(=O)CNC(=O)[C@H](Cc1c[nH]c2ccccc12)NC(=O)[C@H](CC(C)C)NC(=O)[C@@H](N)CO)C(=O)N[C@@H](C)C(=O)N[C@@H](C)C(=O)N[C@@H](C)C(=O)N[C@@H](C)C(=O)NCC(=O)N[C@@H](CCCCN)C(=O)N[C@@H](C)C(=O)N[C@@H](C)C(=O)N[C@@H](CC(C)C)C(=O)N[C@@H](CC(N)=O)C(=O)N[C@@H](C)C(=O)N[C@H](C(=O)N[C@@H](CC(N)=O)C(=O)NCC(=O)N[C@@H](CC(C)C)C(=O)N[C@H](C(=O)N[C@@H](CC(N)=O)C(=O)N[C@@H](CCC(N)=O)C(N)=O)C(C)C)C(C)C` [SLWGKLKEMAAAAGKAALNAVNGLVNQ], the MIC in assay [18] was 8 µM (≈ 21.8 µg/mL); in [19], 64 µM (≈ 174 µg/mL); in [20], 8 µM (≈ 21.8 µg/mL); in assay [21] it was at least 32 µM; in assay [22], at least 64 µM; in assay [23], at least 32 µM. This compound also gave an MIC in [24] of at least 32 µM.

Take `CC[C@H](C)[C@H](NC(=O)[C@H](CCCN=C(N)N)NC(=O)[C@H](CCCN=C(N)N)NC(=O)[C@@H]1CCCN1C(=O)[C@@H]1CCCN1C(=O)[C@@H]1CCCN1C(=O)[C@@H]1CCCN1C(=O)[C@H](CCCN=C(N)N)NC(=O)[C@@H]1CCCN1C(=O)[C@H](CC(C)C)NC(=O)[C@H](Cc1ccc(O)cc1)NC(=O)[C@@H]1CCCN1C(=O)[C@@H]1CCCN1C(=O)[C@H](CCCCN)NC(=O)[C@H](CC(=O)O)NC(=O)[C@@H](N)C(C)C)C(=O)N[C@@H](Cc1ccc(O)cc1)C(=O)N[C@@H](CC(N)=O)C(=O)O` [VDKPPYLPRPPPPRRIYN]: the figures for the minimal inhibitory concentration (MIC) (in assay [25]; against Escherichia coli BL21AI) were 28.7 µM (≈ 62.5 µg/mL) and at least 57.5 µM, respectively.

With `CC[C@H](C)[C@H](NC(=O)[C@H](CC(C)C)NC(=O)[C@@H](NC(=O)[C@@H](NC(=O)[C@@H]1CCCN1C(=O)[C@H](CS)NC(=O)[C@H](CO)NC(=O)CNC(=O)[C@@H]1CCCN1C(=O)[C@H](CCCCN)NC(=O)[C@@H](NC(=O)[C@H](CO)NC(=O)[C@@H](NC(=O)[C@@H]1CCCN1C(=O)CNC(=O)[C@H](CCCCN)NC(=O)[C@@H](NC(=O)[C@@H]1CCCN1C(=O)[C@H](CCC(=O)O)NC(=O)[C@H](CCC(N)=O)NC(=O)[C@H](C)NC(=O)[C@H](CCCCN)NC(=O)[C@@H](N)C(C)C)C(C)C)C(C)C)[C@@H](C)O)[C@@H](C)CC)[C@@H](C)CC)C(=O)N[C@@H](CCCN=C(N)N)C(=O)N[C@@H](CS)C(=O)N[C@@H](C)C(=O)O` [VKAQEPVKGPVSTKPGSCPIILIRCA], the minimal inhibitory concentration (MIC) in the assay on Staphylococcus aureus MR is at least 47.5 µM; in [26] it was at least 47.5 µM; in assay [27], at least 95.1 µM; in [28] it was at least 47.5 µM.
